Reference: ChEMBL document CHEMBL5252549, “Recent developments on synthesis and biological activities of γ-carboline” (Eur J Med Chem, 2018)
≈ marks a conversion by molar mass, not a printed value. Where a name gives a salt, the structure may show the parent alone. One block for each compound: values may come before it.

Experiments:
[1] = molecular target: Cholinesterase (Homo sapiens, UniProt P06276); experiment: Inhibition of BChE (unknown origin)
[2] = system: Escherichia coli; experiment: Antibacterial activity against Escherichia coli assessed as inhibition of bacterial growth incubated for 24 hrs by agar diffusion assay; assay type: functional, organism-based
[3] = molecular target: T1, Glutamate receptor ionotropic, NMDA 2B (Homo sapiens, UniProt Q05586+Q13224); experiment: Displacement of [3H]ifenprodyl from NMDA receptor NR2B subunit (unknown origin)
[4] = molecular target: T1, Glutamate receptor ionotropic, NMDA 2B; experiment: Displacement of [3H]MK801 from NMDA receptor NR2B subunit (unknown origin)
[5] = molecular target: Glutamate [NMDA] receptor; experiment: Displacement of [3H]ifenprodyl from NMDA receptor (unknown origin); assay type: protein-complex assay, Homo sapiens
[6] = system: Bovine viral diarrhea virus 1; experiment: Antiviral activity against bovine viral diarrhea virus 1 infected in MDBK cells assessed as reduction in viral replication-induced cell destruction incubated for 3 days; assay type: functional, organism-based; details: Bovine viral diarrhea virus isolates and strains, 72 h
[7] = Selectivity index, ratio of CC50 for cytotoxicity against MDBK cells to EC50 for antiviral activity against bovine viral diarrhea virus 1 infected in MDBK cells; assay type: toxicity, cell-based; details: cattle, read-out: Ratio CC50/EC50
[8] = system: L5178Y; experiment: Cytotoxicity against mouse L5178Y cells; assay type: functional, cell-based
[9] = molecular target: Acetylcholinesterase (Homo sapiens, UniProt P22303); experiment: Inhibition of human erythrocyte AChE incubated for 10 mins by Ellman's method; assay type: cell-based
[10] = molecular target: Cholinesterase (Equus caballus, UniProt P81908); experiment: Inhibition of horse serum BChE incubated for 10 mins by Ellman's method; assay type: cell-free
Chain of Cholinesterase (Equus caballus, UniProt P81908) (P81908 whole entry): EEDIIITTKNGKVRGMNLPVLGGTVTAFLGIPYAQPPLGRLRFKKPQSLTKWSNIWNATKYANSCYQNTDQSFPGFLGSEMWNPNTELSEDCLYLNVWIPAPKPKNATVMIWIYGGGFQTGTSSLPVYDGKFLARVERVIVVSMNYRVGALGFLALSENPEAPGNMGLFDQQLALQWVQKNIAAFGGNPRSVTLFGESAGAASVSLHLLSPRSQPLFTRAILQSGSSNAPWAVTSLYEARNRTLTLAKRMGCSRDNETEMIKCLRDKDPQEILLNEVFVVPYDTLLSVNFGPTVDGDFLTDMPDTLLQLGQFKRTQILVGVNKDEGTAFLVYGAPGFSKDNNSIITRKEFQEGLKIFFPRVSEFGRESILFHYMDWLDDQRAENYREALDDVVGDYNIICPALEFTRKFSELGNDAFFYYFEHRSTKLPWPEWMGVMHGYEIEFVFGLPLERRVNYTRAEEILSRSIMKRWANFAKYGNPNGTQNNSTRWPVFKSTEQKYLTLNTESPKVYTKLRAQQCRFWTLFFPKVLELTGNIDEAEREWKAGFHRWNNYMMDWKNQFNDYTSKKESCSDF

Chain of Cholinesterase (Homo sapiens, UniProt P06276) (P06276 whole entry, the tested form may be a part): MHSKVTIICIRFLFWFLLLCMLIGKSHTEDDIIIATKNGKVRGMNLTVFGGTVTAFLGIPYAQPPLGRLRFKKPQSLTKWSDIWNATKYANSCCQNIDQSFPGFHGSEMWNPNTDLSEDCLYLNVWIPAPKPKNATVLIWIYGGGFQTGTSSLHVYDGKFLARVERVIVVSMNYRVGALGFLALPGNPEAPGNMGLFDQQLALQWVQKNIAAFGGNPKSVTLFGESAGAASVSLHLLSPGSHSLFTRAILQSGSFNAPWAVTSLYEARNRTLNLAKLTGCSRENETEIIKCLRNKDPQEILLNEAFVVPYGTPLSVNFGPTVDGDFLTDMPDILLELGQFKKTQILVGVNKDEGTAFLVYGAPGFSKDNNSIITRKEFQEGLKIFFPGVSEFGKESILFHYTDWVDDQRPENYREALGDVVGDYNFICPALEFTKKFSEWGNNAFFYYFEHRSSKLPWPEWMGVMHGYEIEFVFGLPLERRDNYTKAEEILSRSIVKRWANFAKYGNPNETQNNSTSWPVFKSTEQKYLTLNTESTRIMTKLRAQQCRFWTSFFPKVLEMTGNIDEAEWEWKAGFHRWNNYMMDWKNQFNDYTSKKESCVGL
T1 sequence (Q13224 whole entry, one chain of several): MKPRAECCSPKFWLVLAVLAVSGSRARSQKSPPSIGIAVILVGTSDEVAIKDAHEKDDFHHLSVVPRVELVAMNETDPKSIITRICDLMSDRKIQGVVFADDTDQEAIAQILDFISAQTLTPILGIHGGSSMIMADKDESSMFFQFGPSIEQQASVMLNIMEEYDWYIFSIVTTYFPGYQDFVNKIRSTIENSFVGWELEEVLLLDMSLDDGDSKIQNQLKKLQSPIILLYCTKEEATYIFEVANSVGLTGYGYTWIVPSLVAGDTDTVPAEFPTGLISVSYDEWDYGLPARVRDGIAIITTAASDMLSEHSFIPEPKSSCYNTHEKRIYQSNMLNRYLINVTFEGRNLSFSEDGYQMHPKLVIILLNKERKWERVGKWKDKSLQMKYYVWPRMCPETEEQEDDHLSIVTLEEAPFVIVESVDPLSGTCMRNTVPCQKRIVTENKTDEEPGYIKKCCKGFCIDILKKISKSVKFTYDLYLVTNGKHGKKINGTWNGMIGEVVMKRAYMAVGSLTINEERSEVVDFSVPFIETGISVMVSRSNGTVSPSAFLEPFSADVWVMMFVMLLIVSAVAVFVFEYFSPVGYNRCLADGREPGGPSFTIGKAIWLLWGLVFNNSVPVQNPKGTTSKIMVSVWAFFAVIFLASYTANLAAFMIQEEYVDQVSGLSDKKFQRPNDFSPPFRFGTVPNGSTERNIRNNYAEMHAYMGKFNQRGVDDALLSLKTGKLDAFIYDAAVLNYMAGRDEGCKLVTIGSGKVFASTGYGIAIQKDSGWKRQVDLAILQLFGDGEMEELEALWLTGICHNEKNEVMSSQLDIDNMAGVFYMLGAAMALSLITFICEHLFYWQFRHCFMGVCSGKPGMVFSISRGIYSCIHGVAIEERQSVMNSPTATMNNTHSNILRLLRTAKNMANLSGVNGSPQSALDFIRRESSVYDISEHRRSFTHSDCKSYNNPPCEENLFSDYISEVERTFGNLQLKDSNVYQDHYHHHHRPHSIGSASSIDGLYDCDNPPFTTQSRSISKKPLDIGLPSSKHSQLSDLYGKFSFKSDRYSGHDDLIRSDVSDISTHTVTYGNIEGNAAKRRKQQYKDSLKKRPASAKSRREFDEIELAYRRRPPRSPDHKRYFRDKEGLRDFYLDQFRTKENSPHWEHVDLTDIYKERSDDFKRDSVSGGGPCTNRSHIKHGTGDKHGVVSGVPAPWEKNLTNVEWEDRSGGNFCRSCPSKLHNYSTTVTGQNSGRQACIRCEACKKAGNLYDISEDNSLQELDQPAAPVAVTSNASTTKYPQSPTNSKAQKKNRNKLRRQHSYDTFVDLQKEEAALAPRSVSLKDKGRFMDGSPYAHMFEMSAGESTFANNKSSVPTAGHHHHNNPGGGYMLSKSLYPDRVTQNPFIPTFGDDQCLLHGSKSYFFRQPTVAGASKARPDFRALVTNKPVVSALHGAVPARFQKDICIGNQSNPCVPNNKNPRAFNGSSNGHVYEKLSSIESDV
Chain of Acetylcholinesterase (P22303 whole entry): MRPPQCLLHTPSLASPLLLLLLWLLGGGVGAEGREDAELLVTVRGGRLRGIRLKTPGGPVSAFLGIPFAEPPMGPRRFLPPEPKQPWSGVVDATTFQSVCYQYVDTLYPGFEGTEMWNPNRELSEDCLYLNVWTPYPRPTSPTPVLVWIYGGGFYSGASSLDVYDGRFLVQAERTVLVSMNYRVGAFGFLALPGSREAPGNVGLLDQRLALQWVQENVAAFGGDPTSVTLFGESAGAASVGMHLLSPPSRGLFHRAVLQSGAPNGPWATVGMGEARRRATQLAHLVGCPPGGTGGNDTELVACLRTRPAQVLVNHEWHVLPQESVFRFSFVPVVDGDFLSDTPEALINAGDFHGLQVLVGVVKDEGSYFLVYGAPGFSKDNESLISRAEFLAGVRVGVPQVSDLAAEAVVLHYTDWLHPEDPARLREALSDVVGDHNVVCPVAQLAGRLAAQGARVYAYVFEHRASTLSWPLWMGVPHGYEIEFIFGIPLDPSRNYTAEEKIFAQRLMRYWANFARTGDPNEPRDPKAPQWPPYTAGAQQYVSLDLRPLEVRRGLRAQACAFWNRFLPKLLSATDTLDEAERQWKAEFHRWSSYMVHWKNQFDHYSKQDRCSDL

SMILES: CCN1CCc2c(c3ccccc3n2CC(O)Cn2c3c(c4ccccc42)CCCC3)C1 (stereo unspecified)
IC50 [1]: 2.77 µM

SMILES: Cn1cc2c3ccccc3n(C)c2c(Cc2ccccc2Cl)c1=O
IC50 [2]: 17 µM

IC50 [3]: 8.8 µM
IC50 [4]: 15.8 µM
SMILES: CCN1CCc2c(c3cc(F)ccc3n2CCC(=O)N2c3ccccc3Sc3ccccc32)C1

SMILES: CCN1CCc2c(c3cc(C)ccc3n2CC(O)Cn2c3c(c4ccccc42)CCCC3)C1 (stereo unspecified)
IC50 [1]: 5.23 µM

IC50 [5]: 11.7 µM
SMILES: Cc1ccc2c(c1)c1c(n2CC(O)Cn2c3ccccc3c3ccccc32)CCN(C)C1 (stereo unspecified)

SMILES: CN1CCc2c(c3cc(F)ccc3n2CC(O)Cn2c3c(c4ccccc42)CCCC3)C1 (stereo unspecified)
IC50 [1]: 5.03 µM

EC50 [6]: 0.0035 µM
SMILES: Cc1ncc2c3ccccc3n(C)c2c1C
selectivity ratio [7]: 2060

SMILES: Nc1nccc(-c2cncc3c2[nH]c2ccccc23)n1
EC50 [8]: 9.1 mg/L (≈ 34.8 µM)

IC50 [3]: 13.4 µM
IC50 [4]: 14.6 µM
SMILES: CCN1CCc2c(c3ccccc3n2CCC(=O)N2c3ccccc3Sc3ccccc32)C1

SMILES: c1ccc2c(c1)[nH]c1ccncc12
selectivity ratio [7]: 20

SMILES: COc1ccc2c(c1)c1c(n2CC(O)CN2c3ccccc3Sc3ccccc32)CCN(C)C1 (stereo unspecified)
IC50 [1]: 0.39 µM

IC50 [3]: 15.4 µM
IC50 [4]: 13.2 µM
SMILES: CCc1ccc2c(c1)c1c(n2CCC(=O)N2c3ccccc3Sc3ccccc32)CCN(C)C1

SMILES: Cc1ccc2c(c1)c1c(n2CC(O)Cn2c3c(c4ccccc42)CCCC3)CCN(C)C1 (stereo unspecified)
IC50 [1]: 3.9 µM

IC50 [3]: 82.4 µM
SMILES: Cc1ccc2c(c1)c1c(n2CCc2ccc(C)nc2)CCN(C)C1 [LATREPIRDINE]

IC50 [5]: 12.5 µM
SMILES: CCN1CCc2c(c3cc(C)ccc3n2CC(O)Cn2c3ccccc3c3ccccc32)C1 (stereo unspecified)

SMILES: CCN1CCc2c(c3cc(F)ccc3n2CC(O)Cn2c3c(c4ccccc42)CCCC3)C1 (stereo unspecified)
IC50 [1]: 5.83 µM

SMILES: CN1CCc2c(c3ccccc3n2Cc2ccccc2C(=O)NCCO[N+](=O)[O-])C1
IC50 [9]: 14.8 µM
IC50 [10]: 3.68 µM

SMILES: CN(C)[C@@H]1C(O)=C(C(N)=O)C(=O)[C@@]2(O)C(O)=C3C(=O)c4c(O)cccc4[C@@](C)(O)[C@H]3C[C@@H]12 [TETRACYCLINE HYDROCHLORIDE]
IC50 [2]: 30 µM

IC50 [3]: 39.5 µM
SMILES: CCN1CCc2c(c3cc(C)ccc3n2-c2c(C(F)(F)F)nc3ccccn23)C1

IC50 [3]: 32.6 µM
SMILES: Cc1ccc2c(c1)c1c(n2CCC(=O)N(C)c2c(C(F)(F)F)nc3cc(C)ccn23)CCN(C)C1

SMILES: CN1CCc2c(c3ccccc3n2CC(O)Cn2c3c(c4ccccc42)CCCC3)C1 (stereo unspecified)
IC50 [1]: 1.06 µM
